These results are taken from patent US11660281B2, “Compositions and methods of treating or preventing fibrotic lung diseases” (YALE UNIVERSITY, priority 2017, dated 2023).

Assay [1] has as its system bleomycin induced lung fibrosis. The assay can be described thus: bleomycin-induced established lung fibrosis in mice: fibrosis and Masson's Trichrome histology. It is filed as in vivo, mice (C57/BL6). The following applies: for collagen deposition in the interstitium, peribronchiolar, or perivascular space (Masson's Trichrome staining): days 10-18 after bleomycin, day 21 lung sections; for established fibrosis in bleomycin induced lung fibrosis: days 10-18 after intratracheal bleomycin 1.5 U/kg, sacrifice day 21. The procedure: (§1) C57B1/6, 9-12 weeks-old, female mice were purchased from Taconic Lab. Mice were anesthetized by placing them in a chamber having paper towels soaked with 40% isoflurane solution. 1.5 U/kg of bleomycin (Hospira, Ill.) or equivalent volume (50 μl) of 0.9% normal saline was administered intratracheally. To test therapeutic efficacy in bleomycin-induced established fibrosis intraperitoneal thyroid hormone receptor beta agonist (GC-1, 30 μg/kg) was administered at days 10, 12, 14, 16 and 18 following bleomycin-administration and mice were sacrificed at day 21. The lungs were harvested for fibrotic assays
Hydroxyproline: Lung hydroxyproline was analyzed with hydroxyproline colorimetric assay kit from Biovision (Milpitas, Calif.) following manufacturer's instruction.
Histology: Tissue sections (4 μm) were stained with Masson Trichrome (collagen/connective tissue), two slices per animal, and two animals per group.
FIG. 1 illustrates an experiment where mice with bleomycin-induced fibrosis were treated with GC-1 intraperitoneally. On Day 0, bleomycin was delivered intratracheally to the mice (1.5 U/kg). On days 10-18, the mice were administered 30 μg/kg of GC-1 (200 μl) or equivalent volume of vehicle (normal saline 0.9%).
9-12 weeks-old, C57/BL6 female mice were treated every other day intraperitoneally with thyroid hormone agonist GC-1 (30 μg/kg) or equivalent volume of empty vehicle (200 μl of normal saline 0.9%) at days 10-18, following intratracheal challenge with bleomycin (1.5 U/kg) or normal saline 0.9%. Mice were sacrificed at day 21. […] Data are expressed as mean hydroxyproline content per lung set (μg/gr lung)+SEM, n=8 mice/group, *p<0.05. FIGS. 2A-2D illustrate quantitative RT-PCR analysis of Col1a1, Col3a1, and FSP1 relative expression in the bleomycin model of lung fibrosis. Bars (means±SEM) are shown for the relative changes (fold) by setting the indicated control level to 1.0, *p<0.05. […]
9-12 weeks-old, C57/BL6 female mice were treated every other day orally by gavage with thyroid hormone receptor agonist GC-1 (5 mg/kg) or equivalent volume of empty vehicle (200 μl of normal saline 0.9%) at days 10-18 following intratracheal challenge with bleomycin (1.5 U/kg) or normal saline 0.9%. […] FIG. 5A: Hydroxyproline level in mice was assessed. Data are expressed as mean hydroxyproline content per lung set (μg/gr lung)+SEM, n=8 mice/group, *p<0.05. FIGS. 5B-5F illustrate quantitative RT-PCR analysis of Col1a1 (collagen, type I, alpha 1), Col3a1 (collagen, type III, alpha 1), FSP1 (fibroblast-specific protein 1), Acta (alpha-actin-2), and Ppargc1a (peroxisome proliferator-activated receptor gamma coactivator 1-alpha) relative expression in the bleomycin model of lung fibrosis. […]

Assay [2] concerns Ppargc1a, Thra and Thrb expression in bleomycin induced mouse lungs. The assay can be described thus: quantitative RT-PCR of relative gene expression in lungs, bleomycin model of lung fibrosis. The following applies: GC-1 30 μg/kg intraperitoneally every other day, days 10-18 after bleomycin; lungs at day 21; FIGS. 3A-3C. It is filed as in vivo, mice (C57/BL6). The protocol: as §1
qRT-PCR assay: Gene expression was determined by TaqMan® (Life Technologies, Thermo Scientific Inc. Rockford Ill., USA) according to manufacturer's instruction. β-glucuronidase (Gusb) was employed as an internal standard control and the specific primers and probes were all obtained from Life Technologies (Thermo Scientific Inc. Rockford Ill., USA). […]
9-12 weeks-old, C57/BL6 female mice were treated every other day intraperitoneally with thyroid hormone receptor beta agonist GC-1 (30 μg/kg) or equivalent volume of empty vehicle (200 μl of normal saline 0.9%) at days 10-18 following intratracheal challenge with bleomycin (1.5 U/kg) or normal saline 0.9%. […] FIGS. 3A-3C illustrate quantitative RT-PCR analysis of Ppargc1a, Thra and Thrb relative expression in the bleomycin model of lung fibrosis. […]

In the case of `Cc1cc(OCC(=O)O)cc(C)c1Cc1ccc(O)c(C(C)C)c1` [GC-1, 2-(4-(4-hydroxy-3-isopropylbenzyl)-3,5-dimethylphenoxy)acetic acid], the “collagen deposition in the interstitium, peribronchiolar, or perivascular space (Masson's Trichrome staining)” value in assay [1] (GC-1 30 μg/kg intraperitoneally every other day, FIG. 2E) is on record as “significant decrease in collagen deposition”; in assay [1] (GC-1 5 mg/kg orally by gavage every other day), “significant decrease in collagen deposition”. Also, the “established fibrosis in bleomycin induced lung fibrosis” value in assay [1] (GC-1 30 μg/kg intraperitoneally every other day, FIGS. 2A-2E) is given as “blunt established fibrosis”; in assay [1] (GC-1 5 mg/kg orally by gavage every other day, FIGS. 5A-5G), “blunt established fibrosis”. Besides, the “Ppargc1a relative expression (qRT-PCR)” value in assay [2] was “regulates expression”.
